These results are taken from ChEMBL document CHEMBL1131902, “Reversal of resistance in multidrug resistance protein (MRP1)-overexpressing cells by LY329146” (Bioorg Med Chem Lett, 1999).

By IC50 is commonly meant the concentration at which inhibition is half-maximal. A high value points to a need for much substance.

Assay [1] has as its system HL-60. Put plainly: Ability to inhibit 50 nM Leukotriene C4 (LTC4) uptake into HL60/ADR membrane vesicles. The format is functional, cell-based. As to conditions: Homo sapiens.
Assay [2] has as its system HeLa. Briefly: Ratio of IC50 of oncolytic and its modulator against Hela T5 cells at 2.5 uM dose of LY-329146. Format: functional, Homo sapiens.
In assay [3] the test system is HeLa. Put plainly: Cytotoxicity tested against Hela C1 cells at 1 uM dose of LY-329146. The format is functional, cell-based. As to conditions: Homo sapiens.
Assay [4] concerns HeLa. Briefly: Cytotoxicity tested against Hela C1 cells at 2.5 uM dose of LY-329146. Format: functional, cell-based. The settings on record: Homo sapiens.
Assay [5] concerns HeLa. Briefly: Ratio of IC50 of oncolytic and its modulator against Hela C1 cells at 1 uM dose of LY-329146. Format: functional, Homo sapiens.
Assay [6] deals with HeLa. Briefly: Ratio of IC50 of oncolytic and its modulator against Hela C1 cells at 2.5 uM dose of LY-329146. The format is functional, Homo sapiens.
The test system of assay [7] is HeLa. Briefly: Cytotoxicity tested against Hela T5 cells at 1 uM dose of LY-329146. Format: functional, cell-based. As to conditions: Homo sapiens.
In assay [8] the test system is HeLa. Briefly: Cytotoxicity tested against Hela T5 cells at 2.5 uM dose of LY-329146. The format is functional, cell-based. As to conditions: Homo sapiens.
In assay [9] the test system is HeLa. Put plainly: Ratio of IC50 of oncolytic and its modulator against Hela T5 cells at 1 uM dose of LY-329146. Format: functional, Homo sapiens.
The test system of assay [10] is HL-60. Put plainly: Cytotoxicity tested against drug resistant HL60/ADR cell line at 1 uM dose of LY-117018. The settings on record: Homo sapiens. Format: functional, cell-based.
The test system of assay [11] is HL-60. Put plainly: Cytotoxicity tested against drug resistant HL60/ADR cell line at 5 uM dose of LY-117018. As to conditions: Homo sapiens. The format is functional, cell-based.
Assay [12] has as its system HL-60. Briefly: Ability to enhance the cytotoxicity of doxorubicin against […] HL60/ADR cell line expressed as reversal factor (RF) at 1 uM. Format: functional, Homo sapiens.
Assay [13] has as its system HL-60. Briefly: Ability to enhance the cytotoxicity of doxorubicin against […] HL60/ADR cell line expressed as reversal factor (RF) at 5 uM. Format: functional, Homo sapiens.
Assay [14] relates to HL-60. Briefly: Cytotoxicity against HL60/Vinc cell line at 0.5 uM dose of LY-329146. The settings on record: Homo sapiens. The format is functional, cell-based.
Assay [15] deals with HL-60. Put plainly: Cytotoxicity tested against HL60/Vinc cell line at 1 uM dose of LY-329146 at 1 uM. Format: functional, cell-based. As to conditions: Homo sapiens.
Assay [16] deals with HL-60. Put plainly: Cytotoxicity tested against HL60/Vinc cell line at 5 uM dose of LY-329146. Format: functional, cell-based. As to conditions: Homo sapiens.
In assay [17] the test system is HL-60. Briefly: Cytotoxicity against drug resistant HL60/ADR cell line at 1 uM dose of LY-329146. Format: functional, cell-based. The settings on record: Homo sapiens.
Assay [18] relates to HL-60. Briefly: Cytotoxicity tested against drug resistant HL60/ADR cell line at 0.5 uM dose of LY-329146. The format is functional, cell-based. As to conditions: Homo sapiens.
For assay [19], the system named is HL-60. Briefly: Cytotoxicity tested against drug resistant HL60/ADR cell line at 5 uM dose of LY-329146. The format is functional, cell-based. The settings on record: Homo sapiens.
In assay [20] the test system is HL-60. Briefly: Cytotoxicity against drug sensitive HL60/S cell line at 0.5 uM dose of LY-329146. Format: functional, cell-based. The settings on record: Homo sapiens.
For assay [21], the system named is HL-60. Briefly: Cytotoxicity tested against drug sensitive HL60/S cell line at 1 uM dose of LY-329146. Format: functional, cell-based. The settings on record: Homo sapiens.
In assay [22] the test system is HL-60. Briefly: Cytotoxicity tested against drug sensitive HL60/S cell line at 5 uM dose of LY-329146. The format is functional, cell-based. The settings on record: Homo sapiens.
Assay [23] deals with HeLa. Put plainly: Cytotoxicity tested against Hela C1 cells. The format is functional, cell-based. As to conditions: Homo sapiens.
The test system of assay [24] is HeLa. Put plainly: Cytotoxicity tested against Hela T5 cells. The settings on record: Homo sapiens. The format is functional, cell-based.
Assay [25] relates to HL-60. Put plainly: Cytotoxicity tested against HL60/Vinc cell line. The format is functional, cell-based. As to conditions: Homo sapiens.
The subject of assay [26] is HL-60. Briefly: Cytotoxicity against drug resistant HL60/ADR cell line. The settings on record: Homo sapiens. Format: functional, cell-based.
Assay [27] deals with HL-60. Put plainly: Cytotoxicity tested against drug sensitive HL60/S cell line. As to conditions: Homo sapiens. Format: functional, cell-based.

Values after ≈ are worked out from the molar mass of the structure shown.

`CS(=O)(=O)N(c1ccc(-c2sc3cc(O)ccc3c2C(=O)c2ccc(OCCN3CCCCC3)cc2)cc1)S(C)(=O)=O`: in the assay on HL-60 [1], half-maximal inhibition (IC50) required 0.8 mg/L (≈ 1.27 µM).
In the case of `CC[C@]1(O)CC2CN(CCc3c([nH]c4ccccc34)[C@@](C(=O)OC)(c3cc4c(cc3OC)N(C=O)C3C45CCN4CC=C[C@@](CC)(C(OC(C)=O)[C@]3(O)C(=O)OC)[C@H]45)C2)C1.CS(=O)(=O)N(c1ccc(-c2sc3cc(O)ccc3c2C(=O)c2ccc(OCCN3CCCCC3)cc2)cc1)S(C)(=O)=O` (some centres not stated), the RF was 3.9 in the assay on HeLa [2], 2 in the assay on HeLa [5], 2.8 in the assay on HeLa [6] and 1.6 with HeLa [9]. The IC50 in the assay with HeLa [3] worked out at 0.007 mg/L; in the assay with HeLa [4], 0.005 mg/L; in the assay on HeLa [7], 0.031 mg/L; in the assay with HeLa [8] it was 0.013 mg/L.
For the compound `COc1cccc2c1C(=O)c1c(O)c3c(c(O)c1C2=O)C[C@@](O)(C(=O)CO)C[C@@H]3O[C@H]1C[C@H](N)[C@H](O)[C@H](C)O1.O=C(c1ccc(OCCN2CCCC2)cc1)c1c(-c2ccc(O)cc2)sc2cc(O)ccc12`, the IC50 was found to be 3.2 mg/L with HL-60 [10] and 1 mg/L in the assay with HL-60 [11]. For the same compound, the RF with HL-60 [12] was 1; in the assay with HL-60 [13] it was 3.
For `CN(C)C(=O)CCSC(SCCC(=O)O)c1cccc(/C=C/c2ccc3ccc(Cl)cc3n2)c1` (configuration not stated) [MK-571], in the assay with HL-60 [1], the IC50 stood at 0.5 mg/L (≈ 0.971 µM).
As to `COc1cccc2c1C(=O)c1c(O)c3c(c(O)c1C2=O)C[C@@](O)(C(=O)CO)C[C@@H]3O[C@H]1C[C@H](N)[C@H](O)[C@H](C)O1.CS(=O)(=O)N(c1ccc(-c2sc3cc(O)ccc3c2C(=O)c2ccc(OCCN3CCCCC3)cc2)cc1)S(C)(=O)=O`, the IC50 in the assay on HL-60 [14] turned out to be 1.44 mg/L; in the assay with HL-60 [15] it was 0.444 mg/L; in the assay on HL-60 [16], 0.027 mg/L; with HL-60 [17], 1.11 mg/L; in the assay on HL-60 [18], 1.71 mg/L; in the assay on HL-60 [19] it was 0.224 mg/L. In addition, the IC50 in the assay with HL-60 [20] stood at 0.023 mg/L; with HL-60 [21], 0.018 mg/L; with HL-60 [22], 0.011 mg/L; with HeLa [3], 0.315 mg/L; with HeLa [4], 0.213 mg/L; in the assay with HeLa [7] it was 1.06 mg/L. Further, in the assay with HeLa [8], the IC50 worked out at 0.241 mg/L.
Turning to `CC[C@]1(O)C[C@H]2CN(CCc3c([nH]c4ccccc34)[C@@](C(=O)OC)(c3cc4c(cc3OC)N(C=O)[C@H]3[C@@](O)(C(=O)OC)[C@H](OC(C)=O)[C@]5(CC)C=CCN6CC[C@]43[C@@H]65)C2)C1` [VINCRISTINE], the figures for the IC50 with HeLa [23] and in the assay on HeLa [24] were 0.014 mg/L (≈ 0.017 µM) and 0.051 mg/L (≈ 0.0618 µM), respectively.
Regarding `COc1cccc2c1C(=O)c1c(O)c3c(c(O)c1C2=O)C[C@@](O)(C(=O)CO)C[C@@H]3O[C@H]1C[C@H](N)[C@H](O)[C@H](C)O1` [DOXORUBICIN], the IC50 with HL-60 [25] turned out to be 1.88 mg/L (≈ 3.46 µM); with HL-60 [26] it was 2.97 mg/L (≈ 5.46 µM); with HL-60 [27], 0.028 mg/L (≈ 0.0515 µM).
